US20080305186A1, “Method and Composition for the Treatment of Cardiac Hypertrophy” (BOARD OF REGENTS, THE UNIVERSITY OF TEXAS SYSTEM, priority 2007, published 2008)

System: cardiac gene expression
Assay: Microarray analysis of cardiac gene expression (GeneChip Mouse Genome 430 2.0)
Format: in vivo, mice
Experimental: Microarray Sample Preparation and Analysis. Animal hearts were rapidly removed, and the atria and right ventricles were cut and immediately plunged into TRIzol Reagent (Life Technologies). Total RNA was isolated following the manufacturer's instructions, purified by phenol-chloroform extraction and then ethanol precipitation, and 20 μg further processed for microarray analysis. Briefly, cDNA synthesis, in vitro transcription, and labeling and fragmentation to produce the oligonucleotide probes were performed as instructed by the GeneChip manufacturer (Affymetrix). The probes were first hybridized to a test array (Affymetrix) and then to the GeneChip Mouse Genome 430 2.0 Array, using the GeneChip Hybridization Oven 640. The chips were washed in a GeneChip Fluidics Station 450 (Affymetrix), and the results were visualized with a GeneChip G7 scanner (Affymetrix). RMA normalization, pairwise comparisons, Student's t test and Benjamini and Hochberg correction were subsequently performed using GeneSifter (VizX Labs, Seattle, Wash.) and Spotfire DecisionSite 8.3 (Spotfire, Inc., Somerville, Mass.).
Effects on Gene Expression Profile. […] One mouse heart was used for each array, and was performed in triplicate, generating a total of 12 arrays. GeneSifter was used to perform RMA normalization, pairwise comparisons of averaged signal intensity values, and Student's t-test with Benjamini and Hochberg correction, and Spotfire was used to perform pairwise comparisons. […] Additionally, genes that were altered between any two N or cardiac hypertrophy samples were removed, as these alterations most likely represented normal variations between mice.

[1] = heart, drug + isoproterenol vs isoproterenol only
[2] = mouse heart, vs isoproterenol only (CH), CH vs normal 1.6
[3] = mouse heart, vs isoproterenol only (CH), CH vs normal 1.7
[4] = mouse heart, vs isoproterenol only (CH), CH vs normal 1.8
[5] = mouse heart, vs isoproterenol only (CH), CH vs normal 1.9
[6] = mouse heart, vs isoproterenol only (CH), CH vs normal 2.0
[7] = mouse heart, vs isoproterenol only (CH), CH vs normal 2.1
[8] = mouse heart, vs isoproterenol only (CH), CH vs normal 2.2
[9] = mouse heart, vs isoproterenol only (CH), CH vs normal 2.3
[10] = mouse heart, vs isoproterenol only (CH), CH vs normal 2.4
[11] = mouse heart, vs isoproterenol only (CH), CH vs normal 2.5
[12] = mouse heart, vs isoproterenol only (CH), CH vs normal 2.6
[13] = mouse heart, vs isoproterenol only (CH), CH vs normal 2.7
[14] = mouse heart, vs isoproterenol only (CH), CH vs normal 2.9
[15] = mouse heart, vs isoproterenol only (CH), CH vs normal 3.0
[16] = mouse heart, vs isoproterenol only (CH), CH vs normal 3.1
[17] = mouse heart, vs isoproterenol only (CH), CH vs normal 3.2

## C[C@H]1c2cccc(O)c2C(=O)C2=C(O)[C@]3(O)C(=O)C(C(N)=O)=C(O)[C@@H](N(C)C)[C@@H]3[C@@H](O)[C@@H]21 [doxycycline]
GenBank NM_133222, vs mice given only isoproterenol
  FC EGF, latrophilin seven transmembrane domain containing 1 (Eltd1): −1.7
GenBank NM_133753, vs mice given only isoproterenol
  FC ERBB receptor feedback inhibitor 1 (Errifi1): −2.7
GenBank NM_133765, vs mice given only isoproterenol
  FC F-box only protein 31 (Fboxo31): −2.4
GenBank NM_133955, vs mice given only isoproterenol
  FC Ras homolog gene family, member U (Arhu) (Rhou): −2.5
GenBank NM_134025, vs mice given only isoproterenol
  FC Peroxisomal biogenesis factor 12 (Pex12): −2.4
GenBank NM_138755, vs mice given only isoproterenol
  FC PHD finger protein 21A (Phf21a): 2.1
GenBank U09114, vs mice given only isoproterenol
  FC Glutamate-ammonia ligase (Glu1): −3.5
GenBank U10551, vs mice given only isoproterenol
  FC Gem GTPase (Gem): −2.8
GenBank X63440, vs mice given only isoproterenol
  FC P19-protein tyrosine phosphatase (Ptpn12): −1.5
[1]
  Cyclin G2 (Ccng2), Microarray FC: −3.1 FC
  Cyclin-dependent kinase inhibitor 1A (p21) (Cdkn1a), Microarray FC: −6.5 FC
  Cytokine inducible SH2-containing protein 3 (Socs3), Microarray FC: −4.9 FC
  DNA-damage-inducible transcript 4 (Ddit4), Microarray FC: −5.6 FC
  GATA binding protein 4 (Gata4), Microarray FC: 2.7 FC
  Gem GTPase (Gem), Microarray FC: −2.8 FC
  Lipocalin 2 (Lcn2), Microarray FC: −13.3 FC
  Matrix metalloproteinase 3 (Mmp3), Microarray FC: −2.9 FC
  Metallothionein 1 (MT2), Microarray FC: −5.5 FC
  NADPH oxidase 4 (Nox4), Microarray FC: −3.2 FC
  Oncostatin receptor (Osmr), Microarray FC: −2.6 FC
  Phospholipase A2 group VII (platelet-activating factor acetylhydrolase, plasma) (Pla2g7), Microarray FC: −2.2 FC
  S100 calcium binding protein A8 (calgranulin A) (S100a8), Microarray FC: −19.9 FC
  S100 calcium binding protein A9 (calgranulin B) (S100a9), Microarray FC: −14.0 FC
  SET and MYND domain containing 1 (Smyd1), Microarray FC: 2.7 FC
  Serine protease inhibitor 2-2 (Spi2-2) (Serpin3n), Microarray FC: −9.7 FC
  Transformation related protein 53 inducible nuclear protein 1 (Trp53inp1), Microarray FC: −3.5 FC
  Tubulin, alpha 4 (Tuba4), Microarray FC: 5.8 FC
[2]
  FC Ankyrin repeat domain 47 (Ankrd47), C79906: −2.0 fold
  FC Procollagen, type IV, alpha 1 (Col4a1), AW536690: −2.4 fold
[3]
  FC cDNA, AV293532: −1.5 fold
  FC cDNA, BG073457: −1.9 fold
  FC cDNA, BI689897: −1.8 fold
[4]
  FC AT rich interactive domain 5B (Mrf1 like) (Arid5b), BB079486: −2.0 fold
  FC Actin binding LIM protein family, member 3 (Ablim3), BB667786: −2.4 fold
  FC Chloride intracellular channel 5 (Circ5), AA210377: −1.7 fold
  FC Fatty acid binding protein 4, adipocyte (Fabp4), BC002148: −2.1 fold
  FC cDNA, AK005293: −1.8 fold
  FC cDNA, BM215139: −1.7 fold
[5]
  FC Chitinase 3-like 3; chitinase 3-like 4, AY065557: −2.4 fold
  FC cDNA, BI683916: −2.6 fold
[6]
  FC Casitas B-lineage lymphoma b (Cblb), AV276986: −1.7 fold
  FC Choline kinase (Chk), NM_013490: −1.9 fold
  FC Coiled-coil domain containing 85A (Ccdc85a), AW060797: −2.0 fold
  FC Transglutaminase 2, C polypeptide (Tgm2), AW321975: −1.8 fold
  FC cDNA, AV228737: −2.1 fold
  FC cDNA, BB447627: −1.6 fold
[7]
  FC Adenosine deaminase (Ada), NM_007398: −2.4 fold
  FC CXC chemokine (angie2) (Cxcl13), AF030636: −2.2 fold
  FC EST, AV032095: −1.8 fold
  FC EST, BE630073: −2.0 fold
  FC cDNA, AI788755: −2.3 fold
  FC cDNA, BB431047: −2.2 fold
Mouse heart, vs isoproterenol only (CH), CH vs normal 2.1, second AI385586 line
  FC Angiogenin, ribonuclease A family, member 1 (Ang1), AI385586: −1.6 fold
[8]
  FC Amine oxidase, copper containing 3 (Aoc3), NM_009675: −2.4 fold
  FC CD14 antigen (CD14), NM_009841: −2.0 fold
  FC Cyclin G2 (Ccng2), U95826: −2.5 fold
  FC Flavin containing monooxygenase 1 (Fmo1), BC011229: −2.0 fold
  FC RAN binding protein 9 (Ranbp9), mRNA., NM_019930: −2.3 fold
  FC cDNA, BB408123: −2.0 fold
  FC cDNA, BB769119: −2.2 fold
  FC cDNA, BG075321: −2.5 fold
  FC cDNA, BG919470: −2.0 fold
[9]
  FC A disintegrin-like and metallopeptidase (reprolysin type) with thrombospondin (ADAMTS)-like 2 (Adamtsl2), AK020831: −1.8 fold
  FC CCAATenhaer binding protein (CEBP), beta (Cebpb), NM_009883: −1.9 fold
  FC cDNA, BB248249: −2.1 fold
  FC cDNA, BB258019: −2.3 fold
  FC cDNA, BB272245: −1.6 fold
  FC cDNA, BC003209: −2.1 fold
  FC cDNA, BF466929: −2.8 fold
[10]
  FC Apical protein, Xenopus laevis-like (Apx1), BQ176992: −1.7 fold
  FC Purine-nucleoside phosphorylase (Pnp), BC003788: −2.0 fold
  FC cDNA, BB398891: −2.2 fold
  FC cDNA, BC027342: −2.8 fold
[11]
  FC ATP-binding cassette, sub-family G (WHITE), member 2 (Abcg2), NM_011920: −1.7 fold
  FC Angiogenin, ribonuclease A family, member 1 (Ang1), NM_007447: −2.1 fold
  FC ESTs, AI447357: −2.5 fold
  FC cDNA, BB787946: −2.3 fold
  FC cDNA, BE956940: −2.2 fold
  FC cDNA, BG065702: −2.5 fold
[12]
  FC Casitas B-lineage lymphoma b (Cblb), BB205662: −2.1 fold
  FC Cysteine proteinase cathepsin L (Ctsl), J02583: −2.1 fold
  FC Dipeptidase 1 (Dpep1), NM_007876: −2.3 fold
  FC Fc fragment of IgG, low affinity IIIa, receptor (Fcrl3), BC027310: −2.7 fold
  FC cDNA, AV234245: −1.8 fold
  FC cDNA, AW552579: −2.4 fold
[13]
  FC Bcl2-like (Bcl211), BM228788: −1.9 fold
  FC Ceruloplasmin (Cp), NM_007752: −1.7 fold
  FC G7e protein, NM_033075: −2.2 fold
  FC Mitogen activated protein kinase kinase kinase 8 (Map3k8), NM_007746: −3.0 fold
  FC cDNA, BB200607: −2.7 fold
  FC cDNA, BC019553: 1.7 fold
  FC cDNA, BG071024: −2.8 fold
  FC cDNA, BQ174442: −2.2 fold
Mouse heart, vs isoproterenol only (CH), CH vs normal 2.8, first AV365503 line
  FC cDNA, AV365503: −3.0 fold
Mouse heart, vs isoproterenol only (CH), CH vs normal 2.8, second NM_007607 line
  FC Carbonic anhydrase 4 (Car4), NM_007607: −4.3 fold
[14]
  FC ChaC, cation transport regulator-like 1 (Chac1), BC025169: −2.6 fold
  FC Decorin (Dcn), AV321547: −2.0 fold
  FC Glycoprotein (transmembrane) nmb (Gpnmb), NM_053110: −2.0 fold
  FC cDNA, BC004065: −3.1 fold
  FC cDNA, BC020080: −3.4 fold
[15]
  FC Amyotrophic lateral sclerosis 2 (juvenile) chromosome region, candidate 13 (Als2cr13), AV326938: −1.6 fold
  FC Chromodomain protein, Y chromosome-like (Cdyl), NM_009881: −2.0 fold
[16]
  FC C-type lectin domain family 1, member a (Clec1a), BB035924: −2.2 fold
  FC Casitas B-lineage lymphoma b (Cblb), AW545867: −2.1 fold
  FC Prostaglandin D synthetase (Ptdgs), AB006361: −2.3 fold
  FC cDNA, AA939619: −3.1 fold
  FC cDNA, AI790538: −2.0 fold
Mouse heart, vs isoproterenol only (CH), CH vs normal 3.1, first NM_007607 line
  FC Carbonic anhydrase 4 (Car4), NM_007607: −5.2 fold
Mouse heart, vs isoproterenol only (CH), CH vs normal 3.1, second AV365503 line
  FC cDNA, AV365503: −2.8 fold
[17]
  FC CUB and zona pellucida-like domains 1 (Cuzd1), NM_008411: −1.7 fold
  FC Chemokine (C—C motif) ligand 6 (Cc16) (MRP-1), BC002073: −1.9 fold
  FC G7e protein, BC027314: −3.1 fold
  FC Serine (or cysteine) peptidase inhibitor, clade A, member 3G (Serpina3g), BC002065: −3.6 fold
  FC cDNA, AV084904: −1.7 fold
  FC cDNA, AV369812: −2.5 fold
  FC cDNA, BB829165: −3.1 fold
  FC cDNA, BG297038: −3.3 fold
  FC cDNA, NM_133898: −3.3 fold
Mouse heart, vs isoproterenol only (CH), CH vs normal 3.2, first AI385586 line
  FC Angiogenin, ribonuclease A family, member 1 (Ang1), AI385586: −2.1 fold
Mouse heart, vs isoproterenol only (CH), CH vs normal 3.3
  FC Pyruvate dehydrogenase kinase 4 (Pdk4), NM_013743: −3.1 fold
